Measurements from ChEMBL document CHEMBL5291721, “A preclinical secondary pharmacology resource illuminates target-adverse drug reaction associations of marketed drugs” (Nat Commun, 2023).

Experiments:
[1] = biological target: T1, Alpha-2B adrenergic receptor (Homo sapiens, UniProt P18089)
T1 sequence (P18089 whole entry): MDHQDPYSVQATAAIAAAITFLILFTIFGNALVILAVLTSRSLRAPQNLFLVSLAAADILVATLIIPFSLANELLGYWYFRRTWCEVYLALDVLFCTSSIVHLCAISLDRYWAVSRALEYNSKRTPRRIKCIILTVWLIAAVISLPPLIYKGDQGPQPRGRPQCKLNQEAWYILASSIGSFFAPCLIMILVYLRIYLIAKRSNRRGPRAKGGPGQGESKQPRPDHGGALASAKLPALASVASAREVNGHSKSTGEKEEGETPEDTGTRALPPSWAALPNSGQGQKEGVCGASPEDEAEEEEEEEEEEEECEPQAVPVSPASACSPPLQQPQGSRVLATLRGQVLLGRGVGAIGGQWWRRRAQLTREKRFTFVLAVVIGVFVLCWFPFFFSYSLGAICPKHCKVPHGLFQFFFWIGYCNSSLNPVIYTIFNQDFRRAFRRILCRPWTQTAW

B2 bradykinin receptor = biological target: T2, B2 bradykinin receptor (Homo sapiens, UniProt P30411)
T2 sequence (P30411 whole entry): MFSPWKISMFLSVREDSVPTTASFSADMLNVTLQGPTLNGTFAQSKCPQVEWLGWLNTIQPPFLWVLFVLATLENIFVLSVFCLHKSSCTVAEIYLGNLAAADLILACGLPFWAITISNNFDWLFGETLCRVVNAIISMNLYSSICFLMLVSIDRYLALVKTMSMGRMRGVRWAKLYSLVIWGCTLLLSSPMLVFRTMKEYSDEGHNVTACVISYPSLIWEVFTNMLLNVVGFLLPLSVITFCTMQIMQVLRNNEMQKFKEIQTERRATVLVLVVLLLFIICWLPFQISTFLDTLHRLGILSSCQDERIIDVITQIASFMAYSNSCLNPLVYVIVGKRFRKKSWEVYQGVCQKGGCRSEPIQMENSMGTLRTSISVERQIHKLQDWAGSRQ

[2] = biological target: Beta-2 adrenergic receptor (Homo sapiens, UniProt P07550); assay type: functional, cell-based
[3] = biological target: T3, Muscarinic acetylcholine receptor M1 (Homo sapiens, UniProt P11229); assay type: functional, cell-based
T3 sequence (P11229 whole entry): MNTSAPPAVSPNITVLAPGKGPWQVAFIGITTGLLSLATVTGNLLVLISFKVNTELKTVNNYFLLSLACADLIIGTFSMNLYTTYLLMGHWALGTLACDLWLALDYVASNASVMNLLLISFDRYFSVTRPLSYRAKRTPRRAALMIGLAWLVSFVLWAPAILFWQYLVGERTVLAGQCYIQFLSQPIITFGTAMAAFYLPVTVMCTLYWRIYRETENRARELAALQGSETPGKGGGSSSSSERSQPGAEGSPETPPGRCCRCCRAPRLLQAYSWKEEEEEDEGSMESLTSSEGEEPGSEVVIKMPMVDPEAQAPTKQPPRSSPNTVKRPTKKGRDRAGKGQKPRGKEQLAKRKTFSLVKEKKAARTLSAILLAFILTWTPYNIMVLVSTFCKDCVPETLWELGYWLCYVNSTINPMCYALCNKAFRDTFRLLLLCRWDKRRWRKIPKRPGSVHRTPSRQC

[4] = biological target: T4, Amine oxidase [flavin-containing] A (Homo sapiens, UniProt P21397); assay type: functional
T4 sequence (P21397 whole entry): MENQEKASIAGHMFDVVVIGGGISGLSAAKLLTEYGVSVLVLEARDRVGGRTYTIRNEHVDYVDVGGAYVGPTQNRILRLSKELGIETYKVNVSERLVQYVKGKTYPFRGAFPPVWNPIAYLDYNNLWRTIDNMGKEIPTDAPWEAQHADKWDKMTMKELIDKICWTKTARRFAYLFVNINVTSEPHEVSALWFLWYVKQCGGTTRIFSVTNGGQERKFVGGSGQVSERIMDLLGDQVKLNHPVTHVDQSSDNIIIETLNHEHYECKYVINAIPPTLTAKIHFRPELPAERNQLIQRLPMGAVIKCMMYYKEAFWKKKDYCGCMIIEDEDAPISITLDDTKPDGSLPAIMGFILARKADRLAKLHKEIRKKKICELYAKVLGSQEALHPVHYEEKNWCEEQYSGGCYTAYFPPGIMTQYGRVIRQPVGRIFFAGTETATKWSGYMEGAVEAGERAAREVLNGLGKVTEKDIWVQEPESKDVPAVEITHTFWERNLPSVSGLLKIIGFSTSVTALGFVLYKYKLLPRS

[5] = biological target: T5, Muscarinic acetylcholine receptor M2 (Homo sapiens, UniProt P08172)
T5 sequence (P08172 whole entry): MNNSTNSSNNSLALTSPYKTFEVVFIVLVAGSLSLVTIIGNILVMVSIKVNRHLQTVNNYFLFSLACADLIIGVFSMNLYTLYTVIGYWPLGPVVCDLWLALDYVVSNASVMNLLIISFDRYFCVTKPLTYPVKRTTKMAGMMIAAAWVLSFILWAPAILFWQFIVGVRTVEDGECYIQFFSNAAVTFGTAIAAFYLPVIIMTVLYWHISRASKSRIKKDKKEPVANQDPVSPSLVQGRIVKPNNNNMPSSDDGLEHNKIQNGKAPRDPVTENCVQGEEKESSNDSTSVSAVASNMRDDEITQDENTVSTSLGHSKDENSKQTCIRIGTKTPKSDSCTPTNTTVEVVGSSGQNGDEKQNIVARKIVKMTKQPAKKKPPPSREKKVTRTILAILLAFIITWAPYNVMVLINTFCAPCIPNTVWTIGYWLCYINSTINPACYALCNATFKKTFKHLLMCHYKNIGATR
Note: assay procedure not described here.

Chain of Beta-2 adrenergic receptor (P07550 whole entry): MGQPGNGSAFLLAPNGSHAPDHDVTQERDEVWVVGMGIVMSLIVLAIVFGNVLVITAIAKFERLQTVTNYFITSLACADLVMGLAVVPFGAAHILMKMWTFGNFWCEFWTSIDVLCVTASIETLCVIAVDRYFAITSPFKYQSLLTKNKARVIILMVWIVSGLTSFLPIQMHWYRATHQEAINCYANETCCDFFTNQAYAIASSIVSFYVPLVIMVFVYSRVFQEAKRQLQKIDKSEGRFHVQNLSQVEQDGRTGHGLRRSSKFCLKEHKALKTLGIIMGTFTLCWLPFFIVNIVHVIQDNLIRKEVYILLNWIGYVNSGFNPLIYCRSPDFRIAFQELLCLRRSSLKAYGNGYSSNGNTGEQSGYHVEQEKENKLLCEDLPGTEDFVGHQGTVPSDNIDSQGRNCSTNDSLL

O=C1Nc2ccc(Cl)cc2[C@@](C#CC2CC2)(C(F)(F)F)O1 [EFAVIRENZ]
AC50 [1]: > 30 µM | AC50 (B2 bradykinin receptor): > 30 µM | AC50 [2]: > 30 µM

O=C(Cc1ccc(-c2ccccc2)cc1)Nc1ccccn1 [DIFENPIRAMIDE]
AC50 [3]: > 30 µM | AC50 [1]: > 30 µM | AC50 [2]: > 30 µM | AC50 [4]: > 30 µM | AC50 [5]: > 30 µM

CNC1Cc2ccccc2N(C)c2ccccc21 (centres undefined) [METAPRAMINE]
AC50 [1]: 29 µM | AC50 [2]: > 30 µM

CNC(=O)c1ccccc1Sc1ccc2c(/C=C/c3ccccn3)n[nH]c2c1 [AXITINIB]
AC50 [1]: > 30 µM | AC50 [2]: > 30 µM

Cn1nnc2c(C(N)=O)ncn2c1=O [TEMOZOLOMIDE]
AC50 [1]: > 30 µM | AC50 (B2 bradykinin receptor): > 30 µM | AC50 [2]: > 30 µM

CC(C)C[C@H]1C(=O)N2CCC[C@H]2[C@]2(O)O[C@](NC(=O)[C@@H]3C=C4c5cccc6[nH]c(Br)c(c56)C[C@H]4N(C)C3)(C(C)C)C(=O)N12 [BROMOCRIPTINE]
AC50 (B2 bradykinin receptor): > 30 µM | AC50 [2]: > 30 µM | AC50 [4]: > 30 µM | AC50 [5]: 29.1 µM

COCCCN1CCC(NC(=O)c2cc(Cl)c(N)c3c2OCC3)CC1 [PRUCALOPRIDE]
AC50 [3]: > 30 µM | AC50 [1]: > 30 µM | AC50 [2]: > 30 µM | AC50 [4]: > 30 µM | AC50 [5]: > 30 µM

Nc1nc(NC2CC2)c2ncn([C@H]3C=C[C@@H](CO)C3)c2n1 [ABACAVIR]
AC50 [1]: > 30 µM | AC50 (B2 bradykinin receptor): > 30 µM | AC50 [2]: > 30 µM

Cc1c(C(=O)NN2CCCCC2)nn(-c2ccc(Cl)cc2Cl)c1-c1ccc(Cl)cc1 [RIMONABANT]
AC50 [1]: 23 µM | AC50 (B2 bradykinin receptor): > 30 µM | AC50 [2]: > 30 µM

CN(C)CCC=C1c2ccccc2C(C)(C)c2ccccc21
AC50 [1]: 11 µM | AC50 [2]: > 30 µM

O=C(OCC(O)CO)c1ccccc1Nc1ccnc2cc(Cl)ccc12 (centres undefined) [GLAFENINE]
AC50 [3]: > 30 µM | AC50 [1]: > 30 µM | AC50 [2]: > 30 µM | AC50 [4]: > 30 µM | AC50 [5]: 4.3 µM

C[C@H]1CNCCc2ccc(Cl)cc21 [LORCASERIN]
AC50 [1]: 5.7 µM | AC50 [2]: > 30 µM
